Laboratory results as given in patent publication EP2272817A1, “PAI-1 INHIBITOR” (Institute of Medicinal Molecular Design, Inc., priority 2008, dated 2009).
Like-named read-outs stand apart in the source and are kept apart here.

Legend:
[1] = biological target: T1, recombinant human PAI-1 (Homo sapiens, UniProt P05121); experiment: biochemical
[2] = biological target: T1, recombinant human PAI-1; experiment: Test Example 2: Human PAI-1 Inhibitory Activity (pH 7.4 HEPES buffer, 10 minutes incubation with two-chain tPA); type: biochemical; design: purchased Molecular Innovations, Inc; conditions: read-out: Inhibition Rate of PAI-1 Activity (%)
Description: 0.1 M HEPES, 0.1 M NaCl. 1 mM EDTA. 0.1 % Polyethylene glycol 8,000 (Hampton Research Corporation),
2 mM Dimethyldecylphoshine oxide [Apo-10] (Fluka Corporation)

[3] = biological target: T1, recombinant human PAI-1; experiment: Test Example 4: Human PAI-1 Inhibitory Activity (amount of PAI-1 bound to plate-coated one-chain tPA, ELISA); type: biochemical; design: purchased Molecular Innovations, Inc; conditions: human PAI-1 bound to tPA, read-out: Inhibition Rate of PAI-1 Activity (%); for inhibition at 0.3 µM: Compound Concentration 0.3µM; for inhibition at 1 µM: Compound Concentration 1µM; for inhibition at 3 µM: Compound Concentration 3µM
Description: 100 µl of tPA solution, where one-chain recombinant tPA (hereinafter reffered to as tPA; American diagnostica, inc.) had been diluted with Buffer A to acheive a concentration of 10 µg/ml, was added to each well of a 96-well plate (Nunc Maxisorp), and the plate was incubated for one night at 4 °C to be coated with tPA. Then, after suction of tPA solution from the 96-well plate, the plate was rinsed successively with Buffer A and Buffer B. To Buffer B, solutions of the compound according to the present invention dissolved with DMSO (final DMSO concentration: 0.2 %) and recombinant human PAI-1 (Molecular Innovations, Inc.) were added. The mixtures were blended so that the final concentrations would be 0.1 to 3.0 µM and 50 ng/ml respectively, and were incubated for 15 minutes on ice. These mixed solutions were added to the rinsed 96-well plate at 100 µl/well, and incubated for 60 minutes at room temperature. To prepare a calibration curve, PAI-1 solutions without the compound according to the present invention (solutions where the final concentrations being 100, 50, 25, 12.5, 6.25, 3.13, or 1.56 ng/ml PAI-1) were added at 100 µl/well, and the plate was incubated for 60 minutes at room temperature, as standard.
After incubation, the reaction mixture was removed by suction, and each well was rinsed with Wash Buffer. Next, anti-human PAI-1 monoclonal antibody (PROGEN Inc.) diluted with Buffer C to be 3.0 µg/ml was added to the 96-well plate at 100 µl/well, and the plate was incubated for 1 hour at room temperature. After rinsing each well with Wash Buffer, alkaline phosphatase-labeled goat anti-mouse IgG (H+L) (Jackson ImmunoResearch, Inc.) diluted with Buffer D to be 0.12 µg/ml was added at 100 µl/well, and the plate was incubated for 1 hour at room temperature. After rinsing each well with Wash Buffer, 1.0 mg/ml p-Nitrophenyl Phosphate (SIGMA) was added to the 96-well plate at 100 µl/well to start the reaction. After 30 to 60 minutes, 25 µl of 0.5 N NaOH was added to stop the reaction, and the absorbance was measured at 405 nm using a multiplate reader (GENios; TECAN G.M.B.H.).
Based on the calibration curve prepared from the standard wells, amounts of PAI-1 bound to tPA in the wells that had been treated with the compound according to the present invention were calculated, and the PAI-1 inhibition rates by the compounds according to the present invention were obtained by the following equation. [API-1InhibitionRate(%)] = [1-(amountofPAI-1boundtotPaonthewellbytreatmentwiththecompondaccordingtothepresentinvention)/(amountofPAI-1boundtotPAonthewellbytreatmentwithPAI-1solutionnotincledingthecompondaccordingtotheinvention(solution having the final concentration of 50 nb/ml PAI-1)] × 100 [formula] • <Composition of Buffer A> 0.1 M Tris-HCl, 150 mM NaCl, pH 7.7 • <Composition of Buffer B> 50 mM sodium phosphate, 0.1 M NaCl, 1 mM EDTA, pH 6.6 • <Composition of Buffer C> 50 mM sodium phosphate, 100 mM NaCl, pH 7.4 • <Composition of Buffer D> 0.01 M Tris-HCl, 0.25 M NaCl, pH 8.0 • <Compositon of Wash Buffer> 0.05 % Tween 20, 0.1 % BSA in Buffer A • <Composition of p-Nitrophenyl Phosphate solution> 1 M Diethanolamine 0.5 mM MgCl2, p-Nitrophenyl phosphate, pH 9.8

[4] = biological target: T2, recombinant rat PAI-1 (Rattus norvegicus, UniProt P20961); experiment: biochemical; conditions: read-out: Inhibition Rate of PAI-1 Activity (%)
T2 sequence (P20961 24-402): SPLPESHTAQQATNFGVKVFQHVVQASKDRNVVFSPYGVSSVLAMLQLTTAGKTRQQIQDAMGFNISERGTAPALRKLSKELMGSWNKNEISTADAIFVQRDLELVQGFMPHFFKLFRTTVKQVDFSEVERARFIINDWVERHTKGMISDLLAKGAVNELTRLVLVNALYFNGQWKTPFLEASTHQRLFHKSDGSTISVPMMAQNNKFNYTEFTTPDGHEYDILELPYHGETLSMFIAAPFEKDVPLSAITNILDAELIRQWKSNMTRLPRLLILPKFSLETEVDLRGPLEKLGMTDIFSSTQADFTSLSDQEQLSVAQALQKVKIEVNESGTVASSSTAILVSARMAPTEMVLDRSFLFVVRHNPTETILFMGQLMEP

[5] = read-out: Inhibition Rate of PAI-1 Activity (%), Compound Concentration 5µM
[6] = read-out: Inhibition Rate of PAI-1 Activity (%), Compound Concentration 10µM
[7] = read-out: Inhibition Rate of PAI-1 Activity (%), Compound Concentration 25µM
[8] = read-out: Inhibition Rate of PAI-1 Activity (%)

T1 sequence (P05121 24-402): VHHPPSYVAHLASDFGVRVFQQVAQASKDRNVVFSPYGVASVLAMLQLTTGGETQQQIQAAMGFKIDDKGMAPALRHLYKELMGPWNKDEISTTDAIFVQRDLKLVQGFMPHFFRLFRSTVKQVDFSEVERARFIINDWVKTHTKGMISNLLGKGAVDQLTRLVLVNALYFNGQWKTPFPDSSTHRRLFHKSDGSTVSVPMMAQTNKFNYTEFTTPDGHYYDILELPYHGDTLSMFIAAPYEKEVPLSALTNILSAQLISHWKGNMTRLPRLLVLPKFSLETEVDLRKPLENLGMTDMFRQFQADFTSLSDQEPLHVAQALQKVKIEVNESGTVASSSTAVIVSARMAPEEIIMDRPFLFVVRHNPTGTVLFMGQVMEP

inhibition at 5 µM [1, 8] [%] | inhibition at 10 µM [1, 8] [%] | inhibition at 25 µM [1, 8] [%] | SMILES | inhibition at 5 µM [1, 5] [%] | inhibition at 10 µM [1, 6] [%] | inhibition at 25 µM [1, 7] [%] | inhibition at 0.1 µM [2] [%] | inhibition at 0.3 µM [2] [%] | inhibition at 1 µM [2] [%] | inhibition at 3 µM [2] [%] | inhibition at 0.3 µM [3] [%] | inhibition at 1 µM [3] [%] | inhibition at 3 µM [3] [%] | inhibition at 0.3 µM [4] [%] | inhibition at 1 µM [4] [%] | inhibition at 3 µM [4] [%] | inhibition at 10 µM [4] [%]
– | – | – | CC(C)(C)c1ccc(CN(C(=O)C(=O)O)c2cc(-c3ccc(OC(F)(F)F)cc3)cc(C(F)(F)F)c2)cc1 [Compound 139] | 25 | 59 | 66 | 0 | 3 | 30 | 97 | 6 | 10 | 32 | 0 | 22 | 85 | 88
– | – | – | CC(C)(Oc1cc(-c2ccc(OC(F)(F)F)cc2)ccc1OCc1ccc(C(C)(C)C)cc1)C(=O)O [Compound 106] | 50 | 85 | 93 | 0 | 8 | 39 | 97 | 0 | 7 | 17 | 0 | 16 | 85 | > 99
64 | 91 | 98 | CC(C)(C)c1ccc(Oc2ccc(Oc3ccc(OC(F)(F)F)cc3)cc2CCC(=O)O)cc1 [Compound 100] | – | – | – | 0 | 2 | 29 | 93 | 7 | 37 | 79 | 0 | 7 | 70 | > 99
– | – | – | CC(C)(C)c1ccc(CN(C(=O)C(=O)O)c2ccc(Cl)c(-c3ccc(OC(F)(F)F)cc3)c2)cc1 [Compound 186] | 76 | 91 | – | 0 | 9 | 22 | > 99 | 15 | 37 | 53 | 2 | 27 | 83 | 89
– | – | – | CC(C)(Oc1cccc(-c2ccc(OC(F)(F)F)cc2)c1OCc1ccc(C(C)(C)C)cc1)C(=O)O [Compound 118] | 56 | 82 | 93 | 0 | 6 | 49 | > 99 | 0 | 4 | 46 | 0 | 16 | 77 | 93
– | – | – | CCCCC(c1ccc(C(C)(C)C)cc1)N(C(=O)C(=O)O)c1ccc(-c2ccc(OC(F)(F)F)cc2)cc1 (stereo not shown) [Compound 221] | 80 | 86 | – | 0 | 6 | 55 | > 99 | 0 | 13 | 38 | 10 | 37 | 89 | –
– | – | – | CCCOc1ccc(N(Cc2ccc(C(C)(C)C)cc2)C(=O)C(=O)O)cc1-c1ccc(OC(F)(F)F)cc1 [Compound 185] | 81 | 87 | 89 | 0 | 9 | 34 | > 99 | 10 | 20 | 49 | 3 | 17 | 85 | 76
– | – | – | CCCOc1ccc(N(Cc2ccc(C(C)(C)C)cc2)C(=O)C(=O)O)c(-c2ccc(OC(F)(F)F)cc2)c1 [Compound 198] | 79 | 95 | 85 | 11 | 8 | 33 | > 99 | 6 | 4 | 33 | 4 | 12 | 84 | 89
– | – | – | CC(C)(C)c1ccc(CN(C(=O)C(=O)O)c2cccc(-c3ccc(OC(F)(F)F)cc3)c2)cc1 [Compound 130] | 82 | 96 | – | 0 | 2 | 18 | 84 | 1 | 3 | 15 | 1 | 16 | 50 | > 99
– | – | – | COc1cc(OC)c(N(Cc2ccc(C(C)(C)C)cc2)C(=O)C(=O)O)cc1-c1ccc(OC(F)(F)F)cc1 [Compound 190] | 65 | 91 | 91 | 2 | 3 | 27 | 95 | 0 | 9 | 55 | 0 | 11 | 66 | > 99
